Experiment: Antioxidant activity using DPPH as a free radical (Brand-Williams method)
Assay type: biochemical
Conditions: for antiradical power (ARP): ARP=I/EC50, larger ARP indicates a more efficient antioxidant; for time to reach steady state in reaction with DPPH*: reaction kinetics, absorbance at 515 nm, methanol
Protocol: Antioxidant activity of the co-pigmented anthocyanin complex was assessed using DPPH as a free radical according to the Brand-Williams method. Activity of the co-pigmented anthocyanin complex was compared with two known antioxidants, ascorbic acid and Trolox. Concentrations tested are expressed as moles of antioxidant per mole DPPH. Briefly, an antioxidant solution in methanol (0.1 ml) was added to 3.9 ml of a 6×10^−5 mol/L methanol DPPH* solution. The decrease in absorbance was determined at 515 nm at 0 min, 1 min, and every 15 min until the reaction reached a plateau. The extract initial DPPH* concentration (CDPPH) in the reaction medium was calculated from a calibration curve with the equation Abs515 nm=0.0765×(CDPPH)+0.1118 as determined by linear regression (R2=0.9994). For each antioxidant concentration tested, the reaction kinetics were plotted (see FIGS. 6A-6C). From these graphs, the percentage of DPPH* remaining at the steady state was determined, and the values were transferred onto another graph showing percentage of residual DPPH* at the steady state as a function of the molar ratio of antioxidant to DPPH*. Antiradical activity was defined as the amount of antioxidant necessary to decrease the initial DPPH* concentration by 50% (Efficient Concentration=EC50 (mol/L)). The results were analyzed in terms of antiradical power (ARP), with a larger ARP indicating a more efficient antioxidant (ARP=I/EC50 AO/(mol/L) DPPH*).

Compound	antiradical power (ARP)	time to reach steady state in reaction with DPPH*
Cc1c(C)c2c(c(C)c1O)CCC(C)(C(=O)O)O2 (stereo not shown) [Trolox]	4.65	less than a minute
O=C1O[C@H]([C@@H](O)CO)C(O)=C1O [ascorbic acid]	0.329	approximately 30 minutes

From patent US11332439B2, “Anthocyanin complex synthesized from date palm leaf extract” (UNITED ARAB EMIRATES UNIVERSITY, priority 2020, dated 2022)
